pIC50: −log10 of the molar value. The source made the active and inactive calls. The rule behind the calls is not given here.
Experiments:
GCIY [1] = test: Induction of apoptosis in human GCIY cells assessed as activation of caspase 3 at 1 to 10 uM by fluorescence assay; format: functional, cell-based; conditions: dose 1-10 µM, time 5-35 hrs, TDE = time-dependent effect
St-4 = test: Growth inhibition of human St-4 cells measured after 48 hrs by sulforhodamine B assay; format: functional
HCT-15 = test: Growth inhibition of human HCT-15 cells measured after 48 hrs by sulforhodamine B assay; format: functional
GCIY [2] = test: Induction of apoptosis in human GCIY cells assessed as activation of caspase 9 measured after 5 to 35 hrs by fluorescence assay; format: functional, cell-based; conditions: dose 1-10 µM, time 5-35 hrs
GCIY [3] = test: Cell cycle arrest in human GCIY cells assessed as accumulation at S phase at 0.3 uM measured after 24 hrs by propidium iodide staining based Muse cell analyzer (reference value: 25.7 +/- 0.7 %); format: functional
GCIY [4] = test: Antitumor activity against human GCIY cells xenografted in KSN/Slc nude mouse assessed as reduction in tumor size at 40 mg/kg, ip administered twice a week for 4 weeks starting from day 4 post inoculation by vernier caliper method; format: functional, organism-based
NCI-H226 = test: Growth inhibition of human NCI-H226 cells measured after 48 hrs by sulforhodamine B assay; format: functional
MKN-1 [5] = test: Induction of apoptosis in human MKN-1 cells assessed as activation of caspase 3 at 1 to 10 uM by fluorescence assay; format: functional, cell-based; conditions: dose 1-10 µM, time 5-35 hrs, TDE = time-dependent effect
HCC 2998 = test: Growth inhibition of human HCC 2998 cells measured after 48 hrs by sulforhodamine B assay; format: functional
NCI-H522 = test: Growth inhibition of human NCI-H522 cells measured after 48 hrs by sulforhodamine B assay; format: functional
A549 = test: Growth inhibition of human A549 cells measured after 48 hrs by sulforhodamine B assay; format: functional
ACHN = test: Growth inhibition of human ACHN cells measured after 48 hrs by sulforhodamine B assay; format: functional
DU-145 = test: Growth inhibition of human DU-145 cells measured after 48 hrs by sulforhodamine B assay; format: functional
NCI-H460 = test: Growth inhibition of human NCI-H460 cells measured after 48 hrs by sulforhodamine B assay; format: functional
SK-OV-3 = test: Growth inhibition of human SK-OV-3 cells measured after 48 hrs by sulforhodamine B assay; format: functional
RXF 631 = test: Growth inhibition of human RXF 631 cells measured after 48 hrs by sulforhodamine B assay; format: functional
MKN-1 [6] = test: Cell cycle arrest in human MKN-1 cells assessed as accumulation at G0/G1 phase at 0.3 uM measured after 24 hrs by propidium iodide staining based Muse cell analyzer (reference value: 49.6 +/- 2.6 %); format: functional
[7] = Toxicity in KSN/Slc nude mouse xenografted with human GCIY cells assessed as effect on body weight at 40 mg/kg, ip administered twice a week for 4 weeks starting from day 4 post inoculation; format: organism-based; conditions: in vivo, 672 h
MKN-74 = test: Growth inhibition of human MKN-74 cells measured after 48 hrs by sulforhodamine B assay; format: functional
SNB-78 = test: Growth inhibition of human SNB-78 cells measured after 48 hrs by sulforhodamine B assay; format: functional
MKN-1 [8] = test: Induction of apoptosis in human MKN-1 cells assessed as activation of caspase 9 at 1 to 10 uM by fluorescence assay; format: functional, cell-based; conditions: dose 1-10 µM, time 5-35 hrs, TDE = time-dependent effect
DMS-273 = test: Growth inhibition of human DMS-273 cells measured after 48 hrs by sulforhodamine B assay; format: functional
OVCAR-3 = test: Growth inhibition of human OVCAR-3 cells measured after 48 hrs by sulforhodamine B assay; format: functional
LOX IMVI = test: Growth inhibition of human LOX IMVI cells measured after 48 hrs by sulforhodamine B assay; format: functional
[9] = target: DNA topoisomerase 2-alpha (Homo sapiens) (UniProt P11388); test: Inhibition of human DNA topoisomerase 2alpha assessed as stabilization of DNA cleavage complex at 50 to 200 uM using supercoiled pSL1180 plasmid DNA as substrate measured after 30 mins by ethidium bromide staining-based UV imaging analysis; conditions: dose 50-200 µM
Sequence of DNA topoisomerase 2-alpha (Homo sapiens) (P11388 whole entry): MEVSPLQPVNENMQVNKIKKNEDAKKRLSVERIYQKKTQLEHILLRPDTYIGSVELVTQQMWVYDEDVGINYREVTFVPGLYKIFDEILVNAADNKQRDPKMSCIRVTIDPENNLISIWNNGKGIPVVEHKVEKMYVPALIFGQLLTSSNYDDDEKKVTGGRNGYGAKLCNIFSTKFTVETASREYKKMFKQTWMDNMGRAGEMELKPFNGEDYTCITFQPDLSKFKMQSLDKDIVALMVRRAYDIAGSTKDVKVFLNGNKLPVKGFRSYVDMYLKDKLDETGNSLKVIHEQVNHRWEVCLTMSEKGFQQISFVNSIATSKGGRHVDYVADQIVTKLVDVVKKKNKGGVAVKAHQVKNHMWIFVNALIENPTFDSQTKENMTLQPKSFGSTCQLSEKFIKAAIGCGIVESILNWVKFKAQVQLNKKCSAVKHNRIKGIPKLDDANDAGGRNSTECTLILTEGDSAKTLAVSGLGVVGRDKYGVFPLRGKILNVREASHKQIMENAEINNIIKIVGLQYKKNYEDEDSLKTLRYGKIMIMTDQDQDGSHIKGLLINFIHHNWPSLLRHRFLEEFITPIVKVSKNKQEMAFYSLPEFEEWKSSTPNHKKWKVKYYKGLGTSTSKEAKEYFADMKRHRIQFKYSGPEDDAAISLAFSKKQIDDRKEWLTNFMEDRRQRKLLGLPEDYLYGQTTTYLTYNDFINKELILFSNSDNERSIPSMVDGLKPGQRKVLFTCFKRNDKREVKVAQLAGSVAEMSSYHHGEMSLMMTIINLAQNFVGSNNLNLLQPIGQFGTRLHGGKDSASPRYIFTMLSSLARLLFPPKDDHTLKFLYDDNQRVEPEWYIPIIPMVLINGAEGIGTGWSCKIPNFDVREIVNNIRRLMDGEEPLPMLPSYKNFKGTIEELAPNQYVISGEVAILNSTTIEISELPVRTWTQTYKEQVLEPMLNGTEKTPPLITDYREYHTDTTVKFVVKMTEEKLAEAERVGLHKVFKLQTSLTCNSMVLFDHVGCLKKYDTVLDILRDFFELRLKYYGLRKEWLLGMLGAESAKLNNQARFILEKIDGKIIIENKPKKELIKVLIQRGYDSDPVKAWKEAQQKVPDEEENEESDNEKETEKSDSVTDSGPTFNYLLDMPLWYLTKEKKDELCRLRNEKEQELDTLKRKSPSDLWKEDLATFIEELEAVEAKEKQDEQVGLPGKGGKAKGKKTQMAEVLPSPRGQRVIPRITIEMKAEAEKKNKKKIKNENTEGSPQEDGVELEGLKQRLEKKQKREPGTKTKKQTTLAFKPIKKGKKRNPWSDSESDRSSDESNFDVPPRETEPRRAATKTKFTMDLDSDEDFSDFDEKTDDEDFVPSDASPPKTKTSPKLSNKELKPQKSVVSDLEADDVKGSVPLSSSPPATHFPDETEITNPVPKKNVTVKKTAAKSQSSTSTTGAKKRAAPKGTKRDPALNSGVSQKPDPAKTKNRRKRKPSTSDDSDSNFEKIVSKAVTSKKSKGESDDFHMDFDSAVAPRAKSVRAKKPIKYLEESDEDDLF

OVCAR-5 = test: Growth inhibition of human OVCAR-5 cells measured after 48 hrs by sulforhodamine B assay; format: functional
HCT-116 = test: Growth inhibition of human HCT-116 cells measured after 48 hrs by sulforhodamine B assay; format: functional
KM12 = test: Growth inhibition of human KM12 cells measured after 48 hrs by sulforhodamine B assay; format: functional
GCIY [10] = test: Cell cycle arrest in human GCIY cells assessed as accumulation at G0/G1 phase at 0.3 uM measured after 24 hrs by propidium iodide staining based Muse cell analyzer (reference value: 43 +/- 2.2 %); format: functional
GCIY [11] = test: Cytotoxicity against human GCIY cells assessed as reduction in cell viability measured after 48 hrs by MTS/CellTiter96 aqueous one solution cell proliferation assay; format: functional, cell-based
MKN-7 = test: Growth inhibition of human MKN-7 cells measured after 48 hrs by sulforhodamine B assay; format: functional
MKN-1 [12] = test: Growth inhibition of human MKN-1 cells measured after 48 hrs by sulforhodamine B assay; format: functional
[13] = Growth inhibition of human BSY1 cells measured after 48 hrs by sulforhodamine B assay; format: functional; conditions: BSY-1
GCIY [14] = test: Cell cycle arrest in human GCIY cells assessed as accumulation at G2/M phase at 0.3 uM measured after 24 hrs by propidium iodide staining based Muse cell analyzer (reference value: 28.9 +/- 1.3 %); format: functional
U-251 = test: Growth inhibition of human U-251 cells measured after 48 hrs by sulforhodamine B assay; format: functional
MKN-1 [15] = test: Cell cycle arrest in human MKN-1 cells assessed as accumulation at G2/M phase at 0.3 uM measured after 24 hrs by propidium iodide staining based Muse cell analyzer (reference value: 33.2 +/- 0.5 %); format: functional
GCIY [16] = test: Cell cycle arrest in human GCIY cells assessed as accumulation at G0/G1 phase at 0.1 uM measured after 24 hrs by propidium iodide staining based Muse cell analyzer (reference value: 43 +/- 2.2 %); format: functional
MKN-28 = test: Growth inhibition of human MKN-28 cells measured after 48 hrs by sulforhodamine B assay; format: functional
MKN-45 = test: Growth inhibition of human MKN-45 cells measured after 48 hrs by sulforhodamine B assay; format: functional
NCI-H23 = test: Growth inhibition of human NCI-H23 cells measured after 48 hrs by sulforhodamine B assay; format: functional
MKN-1 [17] = test: Cytotoxicity against human MKN-1 cells assessed as reduction in cell viability measured after 48 hrs by MTS/CellTiter96 aqueous one solution cell proliferation assay; format: functional, cell-based; conditions: MKN-1, 48 h
GCIY [18] = test: Induction of apoptosis in human GCIY cells assessed as activation of caspase 9 at 1 to 10 uM by fluorescence assay; format: functional, cell-based; conditions: dose 1-10 µM, time 5-35 hrs, TDE = time-dependent effect
MKN-1 [19] = test: Cell cycle arrest in human MKN-1 cells assessed as accumulation at S phase at 0.1 uM measured after 24 hrs by propidium iodide staining based Muse cell analyzer (reference value: 15.5 +/- 0.2 %); format: functional
MKN-1 [20] = test: Cell cycle arrest in human MKN-1 cells assessed as accumulation at G2/M phase at 0.1 uM measured after 24 hrs by propidium iodide staining based Muse cell analyzer (reference value: 33.2 +/- 0.5 %); format: functional

## CC(C)(O)[C@@H]1Cc2c(cc(O)c3c(=O)c(-c4ccc(O)cc4)coc23)O1
GCIY [1]
  Activity: Tde
St-4
  GI50: 6030 nM
HCT-15
  GI50: 676 nM
GCIY [2]
  Activity: Dose-dependent effect
GCIY [3]
  Activity: 7%
GCIY [4]
  Activity: Active
NCI-H226
  GI50: 295 nM
MKN-1 [5]
  Activity: Tde
HCC 2998
  GI50: 2040 nM
NCI-H522
  GI50: 1580 nM
A549
  GI50: 120 nM
ACHN
  GI50: 182 nM
DU-145
  GI50: 316 nM
NCI-H460
  GI50: 70.8 nM
SK-OV-3
  GI50: 427 nM
RXF 631
  GI50: 5010 nM
MKN-1 [6]
  Activity: 4.9%
[7]
  Activity: Non-Toxic
MKN-74
  GI50: 6920 nM
SNB-78
  GI50: 5890 nM
MKN-1 [8]
  Activity: Tde
DMS-273
  GI50: 195 nM
OVCAR-3
  GI50: 2880 nM
LOX IMVI
  GI50: 257 nM
[9]
  inhibition: Active
OVCAR-5
  GI50: 1350 nM
HCT-116
  GI50: 1070 nM
KM12
  GI50: 813 nM
GCIY [10]
  Activity: 2.8%
GCIY [11]
  pIC50: 6.57
MKN-7
  GI50: 4370 nM
MKN-1 [12]
  GI50: 295 nM
[13]
  GI50: 631 nM
GCIY [14]
  Activity: 87.3%
U-251
  GI50: 331 nM
MKN-1 [15]
  Activity: 83.6%
GCIY [16]
  Activity: 34.6%
MKN-28
  GI50: 7080 nM
MKN-45
  GI50: 347 nM
NCI-H23
  GI50: 380 nM
MKN-1 [17]
  pIC50: 6.49
GCIY [18]
  Activity: Tde
MKN-1 [19]
  Activity: 12.3%
MKN-1 [20]
  Activity: 60.8%

From ChEMBL document CHEMBL4680318, “(S)-Erypoegin K, an isoflavone isolated from Erythrina poeppigiana, is a novel inhibitor of topoisomerase IIα: Induction of G2 phase arrest in human gastric cancer cells” (Bioorg Med Chem, 2021)
